Tests used:
Type in all cases: cell-based
[1] = target: T1, hTAS2R43 (Homo sapiens, UniProt P59537); test: calcium flux in transfected HEK-293T cells (with Gα[…]gust44), […] aloin
T1 construct: gene TAS2R43; W35/H212 variant; first 45 amino acids of the rat somatostatin type 3 receptor fused for cell-surface targeting
T1 sequence (P59537 1-309): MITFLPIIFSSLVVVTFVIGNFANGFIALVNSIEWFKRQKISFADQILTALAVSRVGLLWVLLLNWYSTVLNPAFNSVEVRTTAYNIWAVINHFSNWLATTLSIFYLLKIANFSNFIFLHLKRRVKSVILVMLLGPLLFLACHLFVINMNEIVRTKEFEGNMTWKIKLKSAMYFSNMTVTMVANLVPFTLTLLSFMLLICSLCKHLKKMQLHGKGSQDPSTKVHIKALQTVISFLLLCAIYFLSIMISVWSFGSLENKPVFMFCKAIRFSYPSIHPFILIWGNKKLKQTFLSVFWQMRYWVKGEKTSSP

[2] = target: T2, hTAS2R38 (Homo sapiens, UniProt P59533, A49P/I296V); test: calcium flux in transfected HEK-293T cells (with Gα[…]gust44), inhibition of […] PTC response
T2 construct: gene TAS2R38; PAV variant; first 45 amino acids of the rat somatostatin type 3 receptor fused for cell-surface targeting
T2 sequence (P59533 whole entry A49P/I296V, the tested form may be a part): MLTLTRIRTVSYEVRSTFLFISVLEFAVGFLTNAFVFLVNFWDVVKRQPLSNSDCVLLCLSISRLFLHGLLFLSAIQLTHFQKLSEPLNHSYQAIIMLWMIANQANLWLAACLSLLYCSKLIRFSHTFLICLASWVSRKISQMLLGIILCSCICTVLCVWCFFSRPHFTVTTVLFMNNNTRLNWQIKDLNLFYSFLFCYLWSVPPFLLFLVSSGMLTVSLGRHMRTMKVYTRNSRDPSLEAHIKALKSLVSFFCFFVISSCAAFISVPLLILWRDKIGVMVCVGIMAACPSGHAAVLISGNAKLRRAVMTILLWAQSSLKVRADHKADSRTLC

[3] = target: T3, hTAS2R16 (Homo sapiens, UniProt Q9NYV7, R222H); test: calcium flux in transfected HEK-293T cells (with Gα[…]gust44), inhibition of […] salicin response; dose-response and mutant analysis
T3 construct: gene TAS2R16
T3 sequence (Q9NYV7 1-291 R222H): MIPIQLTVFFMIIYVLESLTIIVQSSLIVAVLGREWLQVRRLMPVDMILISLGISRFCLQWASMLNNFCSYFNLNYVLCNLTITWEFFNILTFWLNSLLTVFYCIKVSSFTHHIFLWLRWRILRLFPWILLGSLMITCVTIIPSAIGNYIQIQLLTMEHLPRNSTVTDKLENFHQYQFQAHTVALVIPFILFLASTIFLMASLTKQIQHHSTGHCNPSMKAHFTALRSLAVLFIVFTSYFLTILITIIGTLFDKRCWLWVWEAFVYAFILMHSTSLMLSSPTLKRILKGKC

[4] = target: T3, hTAS2R16; test: calcium flux agonist dose-response in transfected HEK-293T cells (with Gα[…]gust44)

## O=C1c2c(O)cccc2C([C@@H]2O[C@H](CO)[C@@H](O)[C@H](O)[C@H]2O)c2cc(CO)cc(O)c21 (stereo partly shown) [aloin]
[1]
  calcium flux in transfected HEK-293T cells (with Gα16gust44), 3 mM aloin: Aloin induced an increase in intracellular calcium in HEK-293T cells expressing hTAS2R43

## CCCN(CCC)S(=O)(=O)c1ccc(C(=O)O)cc1 [probenecid, p-(dipropylsulfamoyl)benzoic acid]
[2]
  IC50: 211 µM
[3]
  IC50: 292 µM

## OCc1ccccc1O[C@@H]1O[C@H](CO)[C@@H](O)[C@H](O)[C@H]1O [salicin]
[4]
  EC50: ~1200 µM

Source: publication PMC3101243, “Probenecid Inhibits the Human Bitter Taste Receptor TAS2R16 and Suppresses Bitter Perception of Salicin” (PLoS ONE, 2011)
